# According to patent US20180246095A1, “COMPOSITIONS AND METHODS FOR DIAGNOSING AND TREATING LYME DISEASE” (priority 2015, published 2018):
# Tested on: B. burgdorferi B31
# Assay: RNA-Seq gene expression profile of B. burgdorferi persisters that survived antibiotic treatment, compared with drug free control
# Type: cell-based, Borrelia burgdorferi
# Protocol: RNA Sequencing (RNA-Seq) was performed to determine the gene expression profile of B. burgdorferi persisters that survived antibiotic treatment using next generation sequencing to shed light on the mechanisms of B. burgdorferi persistence. B. burgdorferi B31 cultures were grown for 5 days to 1×10^7 spirochetes/ml in BSK-H medium followed by treatment with 50 μg/ml doxycycline or 50 μg/ml amoxicillin for 6 days. Triplicate biological samples were used for each group. The total RNA was extracted and ribosomal RNA was removed prior to preparation of cDNA libraries for Illumina sequencing. […] The RNA-Seq data was analyzed by BLAST analysis and mapped to KEGG pathways.
structure (smiles),measurement,setting,value
CC1(C)S[C@@H]2[C@H](NC(=O)[C@H](N)c3ccc(O)cc3)C(=O)N2[C@H]1C(=O)O [Amo],Expression BB_M25,hypothetical protein,0
same,Expression BB_M30,hypothetical protein,0
same,Expression BB_M39,hypothetical protein,0
same,Expression BB_M41,hypothetical protein,0
same,Expression BB_N20,hypothetical protein,68
same,Expression BB_N30,hypothetical protein,1
same,Expression BB_N41,hypothetical protein,47
same,Expression BB_O02,hypothetical protein,0
same,Expression BB_O03,hypothetical protein,0
same,Expression BB_O04,hypothetical protein,0
same,Expression BB_O05,hypothetical protein,0
same,Expression BB_O06,hypothetical protein,0
same,Expression BB_O08,hypothetical protein,0
same,Expression BB_O09,hypothetical protein,0
same,Expression BB_O10,hypothetical protein,0
same,Expression BB_O13,hypothetical protein,0
same,Expression BB_O29,hypothetical protein,46
same,Expression BB_O31,hypothetical protein,0
same,Expression BB_P20,hypothetical protein,288
same,Expression BB_P21,hypothetical protein,291
same,Expression BB_P30,hypothetical protein,5
same,Expression BB_Q27,hypothetical protein,36
same,Expression BB_Q28,hypothetical protein,22
same,Expression BB_Q32,hypothetical protein,14
same,Expression BB_Q33,hypothetical protein,147
same,Expression BB_Q38,hypothetical protein,0
same,Expression BB_Q39,hypothetical protein,0
same,Expression BB_Q54,hypothetical protein,1
same,Expression BB_Q62,hypothetical protein,1
same,Expression BB_Q0091,hypothetical protein,6
same,Expression BB_R20,hypothetical protein,73
same,Expression BB_R25,hypothetical protein,43
same,Expression BB_R26,hypothetical protein,393
same,Expression BB_R29,hypothetical protein,252
same,Expression BB_R31,hypothetical protein,0
same,Expression BB_R43,hypothetical protein,111
same,Expression BB_S06,hypothetical protein,0
same,Expression BB_S08,hypothetical protein,0
same,Expression BB_S11,hypothetical protein,0
same,Expression BB_S12,hypothetical protein,0
same,Expression BB_S13,hypothetical protein,0
same,Expression BB_S14,hypothetical protein,0
same,Expression BB_S18,hypothetical protein,0
same,Expression BB_S19,hypothetical protein,0
same,Expression BB_S20,hypothetical protein,0
same,Expression BB_S21,hypothetical protein,11
same,Expression BB_S25,hypothetical protein,120
same,Expression BB_S33,hypothetical protein,29
same,Expression BB_0316,integral membrane protein,36
same,Expression BB_0580,integral membrane protein,210
same,Expression BB_0193,lipoprotein,15
same,Expression BB_0628,lipoprotein,158
same,Expression BB_0664,lipoprotein,142
same,Expression BB_0832,lipoprotein,753
same,Expression BB_B27,lipoprotein,42
same,Expression BB_D10,lipoprotein,51
same,Expression BB_J36,lipoprotein,90
same,Expression mlpF BB_M28,lipoprotein,0
same,Expression la7 BB_0365,lipoprotein LA7,112
same,Expression BB_0593,long-chain-fatty-acid CoA ligase,24
same,Expression BB_0353,membrane protein,31
same,Expression BB_0759,membrane protein,1041
same,Expression BB_0143,membrane protein insertion efficiency factor,1085
same,Expression BB_0034,outer membrane protein P13,41
same,Expression BB_M01,phage portal protein,0
same,Expression pstC BB_0216,phosphate ABC transporter permease PstC,128
same,Expression BB_0727,phosphofructokinase,48
same,Expression BB_H29,plasmid partition protein,0
same,Expression proS BB_0402,proline--tRNA ligase,87
same,Expression bdrF BB_S29,protein BdrF,15
same,Expression bdrV BB_Q42,protein BdrV,1
same,Expression erpM BB_O40,protein ErpM,0
same,Expression BB_H13,protein RepU,3
same,Expression BB_A69,putative surface protein,98
same,Expression ksgA BB_0590,rRNA small subunit methyltransferase A,177
same,Expression dnaB BB_0111,replicative DNA helicase,144
same,Expression BB_0419,response regulator,34
same,Expression lepB BB_0263,signal peptidase I,98
same,Expression BB_0453,small conductance mechanosensitive ion channel,467
same,Expression BB_0641,spermidine/putrescine transport system permease,70
same,Expression BB_0153,superoxide dismutase,202
same,Expression BB_I39,surface antigen,8
same,Expression BB_0225,tRNA-dihydrouridine synthase A,194
same,Expression rho BB_0230,transcription termination factor Rho,22
same,Expression BB_0025,transcriptional regulator,272
same,Expression infA BB_0169,translation initiation factor IF-1,522
same,Expression ung BB_0053,uracil-DNA glycosylase,1626
same,Expression udk BB_0015,uridine kinase,37
same,Expression BB_0831,xylose operon regulatory protein,122
